Laboratory results published in patent US20260167620A1, “MULTIFUNCTIONAL COMPOUND CAPABLE OF DEGRADING BTK KINASE, AND COMPOSITION AND USE” (HANGZHOU HEALZEN THERAPEUTICS CO., LTD., priority 2021, published 2026).

Biological target: T1, BTK (Homo sapiens, UniProt Q06187)
T1 construct: endogenous in cells; host or cells: Mino cells
Test: BTK degradation activity test in Mino cells (Westernblot or Elisa)
Format: cell-based
Conditions: 24-72 h incubation
Description: The Mino cell line cells are 0.5˜1 million/well in 6-well plates. The compounds are diluted to different concentrations, added to the plate, and after 24-72 h of incubation, the cells are collected. After the cells were lysed, the total protein concentration in each well was determined with a BCA kit. The amount of BTK is determined using the Westernblot or Elisa method.

T1 sequence (Q06187 whole entry): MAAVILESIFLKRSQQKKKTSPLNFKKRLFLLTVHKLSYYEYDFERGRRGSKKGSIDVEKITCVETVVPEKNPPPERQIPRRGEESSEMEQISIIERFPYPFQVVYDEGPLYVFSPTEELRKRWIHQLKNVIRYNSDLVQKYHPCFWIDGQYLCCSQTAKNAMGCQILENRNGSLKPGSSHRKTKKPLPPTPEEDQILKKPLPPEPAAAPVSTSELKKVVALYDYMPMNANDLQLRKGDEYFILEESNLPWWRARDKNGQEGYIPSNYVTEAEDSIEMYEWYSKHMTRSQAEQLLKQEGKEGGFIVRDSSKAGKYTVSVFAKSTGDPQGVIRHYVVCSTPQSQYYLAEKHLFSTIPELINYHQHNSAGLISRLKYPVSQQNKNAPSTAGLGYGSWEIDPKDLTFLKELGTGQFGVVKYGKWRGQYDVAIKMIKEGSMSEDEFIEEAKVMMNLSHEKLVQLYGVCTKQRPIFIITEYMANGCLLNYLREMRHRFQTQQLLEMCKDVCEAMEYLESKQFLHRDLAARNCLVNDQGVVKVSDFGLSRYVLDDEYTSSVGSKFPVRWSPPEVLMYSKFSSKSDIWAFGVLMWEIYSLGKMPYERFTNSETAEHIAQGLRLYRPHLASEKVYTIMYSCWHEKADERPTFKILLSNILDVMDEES

Compound | DC50 [nM]
NC(=O)c1nc(F)c(N2CCCCC2)nc1Nc1ccc(C2CCN(CC3CCN(c4ccc5c(c4)C(=O)N(C4CCC(=O)NC4=O)C5=O)C3)CC2)cc1 (stereo not drawn) [Compound 042, 3-((4-(1-((1-(2-(2,6-dioxopiperidin-3-yl)-1,3-dioxoisoindolin-5-yl)pyrrolidin-3-yl)methyl)piperidin-4-yl)phenyl)amino)-6-fluoro-5-(piperidin-1-yl) pyrazine-2-carboxamide] | < 10
NC(=O)c1nnc(-c2cccnc2)nc1Nc1ccc(C2CCN(CC3CCN(c4ccc5c(c4)C(=O)N(C4CCC(=O)NC4=O)C5=O)C3)CC2)cc1 (stereo not drawn) [Compound 026, 5-((4-(1-((1-(2-(2,6-dioxopiperidin-3-yl)-1,3-dioxoisoindolin-5-yl)pyrrolidin-3-yl)methyl)piperidin-4-yl)phenyl)amino)-3-(pyridin-3-yl)-1,2,4-triazine-6-carboxamide] | < 10
NC(=O)c1nnc(N2CCOCC2)nc1Nc1ccc(N2CCN(CC3CCN(c4ccc(-c5ccc(=O)[nH]n5)cc4C(F)(F)F)CC3)CC2)c(F)c1 [Compound 103, 5-((3-fluoro-4-(4-((1-(4-(6-oxo-1,6-dihydropyridazin-3-yl)-2-(trifluoromethyl)phenyl)piperidin-4-yl)methyl)piperazin-1-yl)phenyl)amino)-3-morpholino-1,2,4-triazine-6-carboxamide] | < 10
CC(=O)N[C@@H]1CCCN(c2nnc(C(N)=O)c(Nc3ccc(N4CCN(CC5CCN(c6ccc(NC7CCC(=O)NC7=O)nc6)CC5)CC4)c(F)c3)n2)C1 (stereo partly drawn) [Compound 096, 3-((R)-3-acetamidopiperidin-1-yl)-5-((4-(4-((1-(6-((2,6-dioxopiperidin-3-yl)amino)pyridin-3-yl)piperidin-4-yl)methyl)piperazin-1-yl)-3-fluorophenyl)amino)-1,2,4-triazine-6-carboxamide] | < 10
NC(=O)c1cnc(N2CCC[C@@H](O)C2)nc1Nc1ccc(C2CCN(CC3CCN(c4ccc5c(c4)C(=O)N(C4CCC(=O)NC4=O)C5=O)C3)CC2)cc1 (stereo partly drawn) [Compound 035, 4-((4-(1-((1-(2-(2,6-dioxopiperidin-3-yl)-1,3-dioxoisoindolin-5-yl)pyrrolidin-3-yl)methyl)piperidin-4-yl)phenyl)amino)-2-((R)-3-hydroxypiperidin-1-yl) pyrimidine-5-carboxamide] | < 10
NC(=O)c1nnc(N2CCCCC2)nc1Nc1ccc(C2CCN(C(=O)C3CCN(c4ccc5c(c4)C(=O)N(C4CCC(=O)NC4=O)C5=O)CC3)CC2)cc1 (stereo not drawn) [Compound 057, 5-((4-(1-(1-(2-(2,6-dioxopiperidin-3-yl)-1,3-dioxoisoindolin-5-yl)piperidine-4-carbonyl)piperidin-4-yl)phenyl)amino)-3-(piperidin-1-yl)-1,2,4-triazine-6-carboxamide] | < 10
NC(=O)c1nnc(N2CCC[C@@H](O)C2)cc1Nc1ccc(C2CCN(CC3CCN(c4ccc5c(c4)C(=O)N(C4CCC(=O)NC4=O)C5=O)C3)CC2)cc1 (stereo partly drawn) [Compound 041, 4-((4-(1-((1-(2-(2,6-dioxopiperidin-3-yl)-1,3-dioxoisoindolin-5-yl)pyrrolidin-3-yl)methyl)piperidin-4-yl)phenyl)amino)-6-((R)-3-hydroxypiperidin-1-yl) pyridazine-3-carboxamide] | < 10
CC(C)[C@H](N)C(=O)OCN1C(=O)CCC(N2C(=O)c3ccc(N4CCC(CN5CCN(c6ccc(Nc7nc(N8CCCCC8)nnc7C(N)=O)cc6F)CC5)C4)cc3C2=O)C1=O (stereo partly drawn) [Compound 074, (3-(5-(3-((4-(4-((6-carbamoyl-3-(piperidin-1-yl)-1,2,4-triazin-5-yl)amino)-2-fluorophenyl)piperazin-1-yl)methyl)pyrrolidin-1-yl)-1,3-dioxoisoindolin-2-yl)-2,6-dioxopiperidin-1-yl) methyl L-valinate] | < 10
CC(OC(=O)C(C)(C)C)N1C(=O)CCC(N2C(=O)c3ccc(N4CCC(CN5CCN(c6ccc(Nc7nc(N8CCCCC8)nnc7C(N)=O)cc6F)CC5)C4)cc3C2=O)C1=O (stereo not drawn) [Compound 071, 1-(3-(5-(3-((4-(4-((6-carbamoyl-3-(piperidin-1-yl)-1,2,4-triazin-5-yl)amino)-2-fluorophenyl)piperazin-1-yl)methyl)pyrrolidin-1-yl)-1,3-dioxoisoindolin-2-yl)-2,6-dioxopiperidin-1-yl) ethyl pivalate] | < 10
CC(=O)N[C@@H]1CCCN(c2nnc(C(N)=O)c(Nc3ccc(N4CCN(CC5CCN(c6ncc(-c7ccc(=O)[nH]n7)cc6C(F)(F)F)CC5)CC4)c(F)c3)n2)C1 [Compound 094, (R)-3-(3-acetamidopiperidin-1-yl)-5-((3-fluoro-4-(4-((1-(5-(6-oxo-1,6-dihydropyridazin-3-yl)-3-(trifluoromethyl)pyridin-2-yl)piperidin-4-yl)methyl)piperazin-1-yl)phenyl)amino)-1,2,4-triazine-6-carboxamide] | < 10

Now from value to molecule:

DC50 [nM] | Compound
< 10 | NC(=O)c1nnc(N2CCCCC2)nc1Nc1ccc(C2CCN(CC3CCN(c4cc5c(cc4F)C(=O)N(C4CCC(=O)NC4=O)C5)C3)CC2)cc1 (stereo not drawn) [Compound 010, 5-((4-(1-((1-(2-(2,6-dioxopiperidin-3-yl)-6-fluoro-1-oxoisoindolin-5-yl)pyrrolidin-3-yl)methyl)piperidin-4-yl)phenyl)amino)-3-(piperidin-1-yl)-1,2,4-triazine-6-carboxamide]
< 10 | N#Cc1cccc(Nc2nnc(C(N)=O)c(Nc3ccc(C4CCN(CC5CCN(c6ccc7c(c6)C(=O)N(C6CCC(=O)NC6=O)C7=O)C5)CC4)cc3)n2)c1 (stereo not drawn) [Compound 020, 3-((3-cyanophenyl)amino)-5-((4-(1-((1-(2-(2,6-dioxopiperidin-3-yl)-1,3-dioxoisoindolin-5-yl)pyrrolidin-3-yl)methyl)piperidin-4-yl)phenyl)amino)-1,2,4-triazine-6-carboxamide]
< 10 | NC(=O)c1nnc(N2CCCCC2)nc1Nc1ccc(N2CCN(C(=O)C3CCN(c4ccc5c(c4)C(=O)N(C4CCC(=O)NC4=O)C5=O)C3)CC2)cc1 (stereo not drawn) [Compound 056, 5-((4-(4-(1-(2-(2,6-dioxopiperidin-3-yl)-1,3-dioxoisoindolin-5-yl)pyrrolidine-3-carbonyl)piperazin-1-yl)phenyl)amino)-3-(piperidin-1-yl)-1,2,4-triazine-6-carboxamide]
< 10 | COc1nc(C(N)=O)c(Nc2ccc(C3CCN(CC4CCN(c5ccc6c(c5)C(=O)N(C5CCC(=O)NC5=O)C6=O)C4)CC3)cc2)nc1N1CCCCC1 (stereo not drawn) [Compound 043, 3-((4-(1-((1-(2-(2,6-dioxopiperidin-3-yl)-1,3-dioxoisoindolin-5-yl)pyrrolidin-3-yl)methyl)piperidin-4-yl)phenyl)amino)-6-methoxy-5-(piperidin-1-yl) pyrazine-2-carboxamide]
< 10 | CC(=O)N[C@@H]1CCCN(c2nnc(C(N)=O)c(Nc3ccc(N4CCN(CC5CCN(c6ccc(-c7ccc(=O)[nH]n7)cc6C(F)(F)F)CC5)CC4)c(F)c3)n2)C1 [Compound 095, (R)-3-(3-acetamidopiperidin-1-yl)-5-((3-fluoro-4-(4-((1-(4-(6-oxo-1,6-dihydropyridazin-3-yl)-2-(trifluoromethyl)phenyl)piperidin-4-yl)methyl)piperazin-1-yl)phenyl)amino)-1,2,4-triazine-6-carboxamide]
< 10 | CC(C)(C)C(=O)OCN1C(=O)CCC(N2C(=O)c3ccc(N4CCC(CN5CCC(c6ccc(Nc7nc(N8CCCCC8)nnc7C(N)=O)cc6F)CC5)C4)cc3C2=O)C1=O (stereo not drawn) [Compound 068, (3-(5-(3-((4-(4-((6-carbamoyl-3-(piperidin-1-yl)-1,2,4-triazin-5-yl)amino)-2-fluorophenyl)piperidin-1-yl)methyl)pyrrolidin-1-yl)-1,3-dioxoisoindolin-2-yl)-2,6-dioxopiperidin-1-yl) methyl pivalate]
< 10 | NC(=O)c1cnc(N2CCCCC2)nc1Nc1ccc(C2CCN(CC3CCN(c4ccc5c(c4)C(=O)N(C4CCC(=O)NC4=O)C5=O)C3)CC2)c(F)c1 (stereo not drawn) [Compound 036, 4-((4-(1-((1-(2-(2,6-dioxopiperidin-3-yl)-1,3-dioxoisoindolin-5-yl)pyrrolidin-3-yl)methyl)piperidin-4-yl)-3-fluorophenyl)amino)-2-(piperidin-1-yl) pyrimidine-5-carboxamide]
< 10 | NC(=O)c1nnc(N2CC[C@@H](O)C2)nc1Nc1ccc(C2CCN(CC3CCN(c4ccc5c(c4)C(=O)N(C4CCC(=O)NC4=O)C5=O)C3)CC2)cc1 (stereo partly drawn) [Compound 022, 5-((4-(1-((1-(2-(2,6-dioxopiperidin-3-yl)-1,3-dioxoisoindolin-5-yl)pyrrolidin-3-yl)methyl)piperidin-4-yl)phenyl)amino)-3-((R)-3-hydroxypyrrolidin-1-yl)-1,2,4-triazine-6-carboxamide]
< 10 | CC(OC(=O)C(C)(C)C)N1C(=O)CCC(N2C(=O)c3ccc(N4CCC(CN5CCC(c6ccc(Nc7nc(N8CCCCC8)nnc7C(N)=O)cc6)CC5)C4)cc3C2=O)C1=O (stereo not drawn) [Compound 069, 1-(3-(5-(3-((4-(4-((6-carbamoyl-3-(piperidin-1-yl)-1,2,4-triazin-5-yl)amino)phenyl)piperidin-1-yl)methyl)pyrrolidin-1-yl)-1,3-dioxoisoindolin-2-yl)-2,6-dioxopiperidin-1-yl) ethyl pivalate]
< 10 | NC(=O)c1cnc(N2CCCCC2)cc1Nc1ccc(C2CCN(CC3CCN(c4ccc5c(c4)C(=O)N(C4CCC(=O)NC4=O)C5=O)C3)CC2)cc1 (stereo not drawn) [Compound 038, 4-((4-(1-((1-(2-(2,6-dioxopiperidin-3-yl)-1,3-dioxoisoindolin-5-yl)pyrrolidin-3-yl)methyl)piperidin-4-yl)phenyl)amino)-6-(piperidin-1-yl) nicotinamide]
< 10 | NC(=O)c1nnc(Oc2cccc(F)c2F)nc1Nc1ccc(C2CCN(CC3CCN(c4ccc5c(c4)C(=O)N(C4CCC(=O)NC4=O)C5=O)C3)CC2)cc1 (stereo not drawn) [Compound 028, 3-(2,3-difluorophenoxy)-5-((4-(1-((1-(2-(2,6-dioxopiperidin-3-yl)-1,3-dioxoisoindolin-5-yl)pyrrolidin-3-yl)methyl)piperidin-4-yl)phenyl)amino)-1,2,4-triazine-6-carboxamide]
